Literature values, collected in patent publication US20240390363A1, “GRANULES CONTAINING POSACONAZOLE” (ALFRED E. TIEFENBACHER (GMBH & CO. KG), priority 2021, published 2024).

What was measured:
[1] = forms compared with form I
[2] = storage or stress conditions; form IV: aqueous suspension

| SMILES | Aqueous / water solubility [1] | Stability of the crystalline form [2] |
| --- | --- | --- |
| CC[C@@H]([C@H](C)O)n1ncn(-c2ccc(N3CCN(c4ccc(OC[C@@H]5CO[C@@](Cn6cncn6)(c6ccc(F)cc6F)C5)cc4)CC3)cc2)c1=O [Posaconazole] | low aqueous solubility |  |
| CC[C@@H]([C@H](C)O)n1ncn(-c2ccc(N3CCN(c4ccc(OC[C@@H]5CO[C@@](Cn6cncn6)(c6ccc(F)cc6F)C5)cc4)CC3)cc2)c1=O [form IV, posaconazole] | better water solubility | better stability in an aqueous suspension |
| CC[C@@H]([C@H](C)O)n1ncn(-c2ccc(N3CCN(c4ccc(OC[C@@H]5CO[C@@](Cn6cncn6)(c6ccc(F)cc6F)C5)cc4)CC3)cc2)c1=O [form Y, posaconazole] | better water solubility | as stable as form I |
